Measurements as given in ChEMBL document CHEMBL1125447, “Phenylmorphans and analogues: opioid receptor subtype selectivity and effect of conformation on activity” (J Med Chem, 1992).

Tests used:
[1] = biological target: Kappa-type opioid receptor (Cavia porcellus, UniProt P41144); assay: Binding affinity towards opioid receptor kappa 1
Mu-type opioid receptor [2] = biological target: T1, Mu-type opioid receptor (Bos taurus, UniProt P79350); assay: Binding affinity towards opioid receptor mu 2
Mu-type opioid receptor [3] = biological target: T1, Mu-type opioid receptor; assay: Binding affinity towards opioid receptor mu 1
Mus musculus = assay: Antinociceptive activity displayed after pretreatment with selective opioid antagonist beta-FNA([…], sc); type: functional

Sequence of Kappa-type opioid receptor (P41144 whole entry): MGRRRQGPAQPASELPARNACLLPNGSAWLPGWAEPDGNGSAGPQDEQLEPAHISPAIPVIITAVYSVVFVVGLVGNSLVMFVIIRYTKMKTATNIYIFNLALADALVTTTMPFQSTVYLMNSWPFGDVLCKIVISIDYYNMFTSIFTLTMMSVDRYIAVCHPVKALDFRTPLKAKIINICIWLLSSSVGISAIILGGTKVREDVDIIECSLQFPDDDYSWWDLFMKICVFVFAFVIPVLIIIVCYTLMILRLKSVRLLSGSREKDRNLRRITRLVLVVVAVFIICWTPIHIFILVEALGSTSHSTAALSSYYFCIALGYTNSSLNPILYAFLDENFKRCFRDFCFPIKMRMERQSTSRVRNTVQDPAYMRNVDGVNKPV
T1 sequence (P79350 whole entry): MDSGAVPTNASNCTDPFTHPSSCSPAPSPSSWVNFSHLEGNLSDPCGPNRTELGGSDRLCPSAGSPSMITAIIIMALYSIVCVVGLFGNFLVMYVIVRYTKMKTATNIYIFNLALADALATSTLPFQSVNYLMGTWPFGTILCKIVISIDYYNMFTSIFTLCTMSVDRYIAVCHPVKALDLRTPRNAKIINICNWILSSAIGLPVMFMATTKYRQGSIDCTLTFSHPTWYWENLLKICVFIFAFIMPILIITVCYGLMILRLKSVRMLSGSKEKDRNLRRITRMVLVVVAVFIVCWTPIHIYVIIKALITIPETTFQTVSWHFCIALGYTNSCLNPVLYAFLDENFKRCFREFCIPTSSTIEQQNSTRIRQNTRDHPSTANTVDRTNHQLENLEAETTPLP

**Q.** Which Ki [1] does the source give for `CN1CCC2(c3cccc(O)c3)CCCC1[C@H]2O` (mixture of isomers) here?
**A.** 110 nM

**Q.** And the Ki (Mu-type opioid receptor [2])?
**A.** 28 nM

**Q.** And the Ki (Mu-type opioid receptor [3])?
**A.** 8.8 nM

**Q.** `C[C@@H]1C2CCCC1(c1cccc(O)c1)CCN2C` (single isomer, unassigned; (-)) was tested. Which Ki [1] did it give?
**A.** 49 nM

**Q.** What about the Ki (Mu-type opioid receptor [2]) of the same compound?
**A.** 50 nM

**Q.** And the Ki (Mu-type opioid receptor [3])?
**A.** 18 nM

**Q.** Which results are given for `CN1CCC2(c3cccc(O)c3)CCCC1C2` (single isomer, unassigned; (-))?
**A.** Ki [1]: 200 nM; Ki (Mu-type opioid receptor [2]): 63 nM; Ki (Mu-type opioid receptor [3]): 13 nM

**Q.** What does the source list for `C[C@@H]1C2CCCC1(c1cccc(O)c1)CCN2C` (mixture of isomers)?
**A.** Ki [1]: 70 nM; Ki (Mu-type opioid receptor [2]): 190 nM; Ki (Mu-type opioid receptor [3]): 46 nM

**Q.** What does the source list for `C[C@@H]1C2CCCC1(c1cccc(O)c1)CCN2C` (single isomer, unassigned; (+))?
**A.** Ki [1]: 89 nM; Ki (Mu-type opioid receptor [2]): > 600 nM; Ki (Mu-type opioid receptor [3]): 140 nM

**Q.** What does the source list for `CN1CCC2(c3cccc(O)c3)CCCC1C2` (single isomer, unassigned; (+))?
**A.** Animals (Mus musculus): 0%; Ki [1]: 98 nM; Ki (Mu-type opioid receptor [2]): 19 nM; Ki (Mu-type opioid receptor [3]): 3.4 nM

**Q.** Which Ki (Mu-type opioid receptor [2]) does the source give for `CC1(C)SSC(C)(C)[C@@H](NC(=O)[C@@H](N)Cc2ccc(O)cc2)C(=O)NCC(=O)N[C@@H](Cc2ccccc2)C(=O)N[C@H]1C(=O)O` here?
**A.** 460 nM

**Q.** And the Ki (Mu-type opioid receptor [3])?
**A.** 82 nM

**Q.** How did the Ki [1] turn out when `CN1CCC2(c3cccc(O)c3)CCCC1[C@@H]2O` (mixture of isomers) was run?
**A.** > 500 nM

**Q.** What about the Ki (Mu-type opioid receptor [2]) of the same compound?
**A.** > 275 nM

**Q.** What about the Ki (Mu-type opioid receptor [3]) of the same compound?
**A.** 75 nM
